Test results: US20180346518A1, “LYSOBACTIN FOR USE IN THE TREATMENT OF BOVINE MASTITIS” (BAYER ANIMAL HEALTH GMBH, priority 2015, published 2018)
Numbered stars: 1 amine (or outer) side, 2 acyl side, 3 side chain; on linkers, the order of the positions; unused ones are H or OH. Bridge positions count the residues as written; N and C are the ends. Square brackets hold non-standard residues; d marks the D form. Peptide text beside a SMILES is read from it. Phe(3R-OH) = O=C([C@@H](N[*:1])[C@H](O[*:3])c1ccccc1)[*:2]; Asn(3S-OH) = NC(=O)[C@@H](O)[C@H](N)C(=O)O; Leu(3R-OH) = CC(C)[C@@H](O)[C@H](N)C(=O)O; aThr = C[C@H](O)[C@H](N)C(=O)O

Experiments:
Staphylococcus aureus = test: dairy cow udder infection model with S. aureus; type: in vivo, lactating dairy cows
Description: Fifteen healthy lactating dairy cows were experimentally infected with the mastitis pathogen Staphylococcus aureus on all four udder quarters. […] Treatments were randomly assigned to 42 udder quarters in total, either 50 mg lysobactin per quarter (in 11 quarters), or 150 mg Lysobactin (in 11 quarters), or Ubrolexin® (in 9 quarters), or saline solution (in 11 quarters). Only udder quarters that were bacteriologically positive for the challenge organism immediately prior to treatment (n=42) were eligible for assessment of microbiological and clinical cure. The diseased quarters were treated with these intramammary formulations two times with an interval of 24 hours in between. Udders were clinically examined and milk samples were taken before treatment and several times after that until three weeks after the second administration. Milk was inspected visually for deviation in its consistency and samples were evaluated for presence of the challenge organism and for somatic cell count to confirm the diagnosis mastitis. Diseased udder quarters were considered microbiologically cured when Staphylococcus aureus found in milk samples shortly before treatment could not be isolated from any milk sample taken within the time period between the third and the twenty-first day after the second treatment. Clinical cure was achieved when the local symptoms of mastitis had completely disappeared, and recovery of somatic cell counts (SCC) as parameter of udder inflammation was attained when all counts remained below 500.000 cells per mL of milk in the period mentioned above.

Streptococcus uberis [1] = test: Streptococcus uberis challenge mouse mastitis model; type: in vivo, lactating mice; conditions: 100, 200, 400 or 800 μg/gland hydrogel, 18 h after infection; all glands, with one exception in the highest dosing group
Description: The efficacy of lysobactin (formulated in a hydrogel at pH 4.7) was tested in a Streptococcus uberis challenge mouse mastitis model. Twenty lactating mice were experimentally infected on the fourth pair of mammary glands with S. uberis around 12-15 days after birth of the offspring. Four hours after inoculation, groups of four mice were treated on the same glands with lysobactin at 100, 200, 400, or 800 μg/gland formulated as hydrogel. The fifth group was treated solely with the hydrogel vehicle as negative control. Eighteen hours after infection the animals were euthanized, the glands were removed, homogenized, and bacterial colony forming units (CFUs) were determined by established microbiological methods. Subsequently CFU/mL homogenate as well as CFU/g of gland were calculated. The detection limit was approximately 100 CFU/g of gland. Antimicrobial activity of lysobactin against Strep uberis was determined by comparison of the mean CFUs/gland of the different dosing groups and the negative control group.

Streptococcus uberis [2] = test: dairy cow udder infection model with S. uberis; type: in vivo, lactating dairy cows
Description: Seventy-two healthy lactating dairy cows were experimentally infected with the mastitis pathogen Streptococcus uberis on two udder quarters per cow. […] Treatments were randomly assigned to 41 (clinical) or 37 (microbiological) udder quarters in total, either 50 mg lysobactin per quarter (in 15/13 quarters), or 150 mg lysobactin (in 15/14 quarters), or Ubrolexin® (in 11/10 quarters) as positive control. The diseased quarters were treated with these intramammary formulations two times with an interval of 24 hours in between. Udders were clinically examined and milk samples were taken before treatment and several times after that until three weeks after the second administration. Milk was inspected visually for deviation in its consistency and samples were evaluated for presence of the challenge organism to confirm the diagnosis mastitis. Diseased udder quarters were considered microbiologically cured when Streptococcus uberis found in milk samples shortly before treatment could not be isolated from any milk sample taken within the time period between the seventh and the twenty-first day after the second treatment. Clinical cure was achieved when the local symptoms of mastitis completely disappeared or were at the most of very slight nature.

S. uberis = test: resistance development during serial passaging; type: cell-based, Streptococcus uberis; conditions: constant sub-MIC exposure, 33 days
Description: (§1) The appearance of MIC changes during constant exposure of bacteria to sub-MIC concentrations of lysobactin was assessed by serial passaging experiments. On the first day the MICs of S. aureus and S. uberis were assessed by microbroth dilution MIC methodology as described by the Clinical and Laboratory Standards Institute (CLSI). Each day for the following 33 consecutive days, bacteria from the well containing the highest concentrations allowing full growth were collected and used to inoculate new 96-well plates and to assess the MIC during constant exposure to lysobactin. The MIC obtained on each day was plotted over time. Rifampicin, which is known to result in quick changes of the MIC, was used as positive control.

S. aureus = test: resistance development during serial passaging; type: cell-based, Staphylococcus aureus; conditions: constant sub-MIC exposure, 33 days
Description: as §1

[3] = 50 mg per quarter, Day 3 after second treatment
[4] = 50 mg per quarter, Day 21 after second treatment
[5] = 150 mg per quarter, Day 3 after second treatment
[6] = 150 mg per quarter, Day 21 after second treatment
[7] = 150 mg per quarter, Day 7 after second treatment

With `CC[C@H](C)[C@@H]1NC(=O)[C@@H](CCCNC(=N)N)NC(=O)[C@H](CC(C)C)NC(=O)[C@H]([C@H](O)C(C)C)NC(=O)[C@@H](NC(=O)[C@H](CC(C)C)NC(=O)[C@H](N)CC(C)C)[C@@H](c2ccccc2)OC(=O)[C@H](CO)NC(=O)[C@H]([C@H](O)C(N)=O)NC(=O)CNC(=O)[C@H]([C@H](C)O)NC1=O` [lysobactin] (H-[dL]L[Phe(3R-OH)][Leu(3R-OH)]L[dR]I[aThr]G[Asn(3S-OH)]S; ester 3-C) the microbiological cure rate (Staphylococcus aureus; 50 mg per quarter, 2 treatments 24 h apart, Day 3 after second treatment) was 73%, the SCC recovery rate (Staphylococcus aureus; [3]) was 36% and the “local clinical cure rate” value (Staphylococcus aureus; [3]) was 45%. The SCC recovery rate (Staphylococcus aureus; [4]) was 45%, the “local clinical cure rate” value (Staphylococcus aureus; [4]) was 73% and the microbiological cure rate (Staphylococcus aureus; [4]) was 27%. For the same molecule, the SCC recovery rate (Staphylococcus aureus; [5]) was 36%, the “local clinical cure rate” value (Staphylococcus aureus; [5]) was 37% and the microbiological cure rate (Staphylococcus aureus; [5]) was 73%. The SCC recovery rate (Staphylococcus aureus; [6]) was 91%, the “local clinical cure rate” value (Staphylococcus aureus; [6]) was 82% and the microbiological cure rate (Staphylococcus aureus; [6]) was 45%. For the same molecule, the “bacterial counts in glands” value (Streptococcus uberis [1]) was < 10^2 CFU/g, the microbiological cure rate (Streptococcus uberis [2]; 50 mg per quarter, 2 treatments 24 h apart, Day 7 after second treatment) was 84.6% and the “local clinical cure rate” value (Streptococcus uberis [2]; 50 mg per quarter, Day 7 after second treatment) was 86.7%. The microbiological cure rate (Streptococcus uberis [2]; [4]) was 92.31%, the “local clinical cure rate” value (Streptococcus uberis [2]; [7]) was 86.7% and the microbiological cure rate (Streptococcus uberis [2]; [7]) was 71.4%. For the same molecule, the microbiological cure rate (Streptococcus uberis [2]; [6]) was 85.71%, the “MIC change during serial passaging” value (S. uberis) was “remain constant” and the “MIC change during serial passaging” value (S. aureus) was “remain constant”.
